According to patent publication US10689459B2, “Treatment of breast cancer brain metastases” (THE GENERAL HOSPITAL CORPORATION, priority 2014, dated 2020):

B1: NRG-1: neuregulin 1, HER3 ligand; secreted growth factor (protein)
chain: TSHLVKCAEKEKTFCVNGGECFMVKDLSNPSRYLCKCPNEFTGDRCQNYVMASFYKHLGIEFMEAEELYQK

Assays:
p-AKT = p-AKT inhibition in tumor tissue (BM versus MFP tumors); format: in vivo, nude mice; settings: tumor tissue collected two hours after the final dose
From the text: (§1) 5-(2,6-di-morpholin-4-yl-pyrimidin-4-yl)-4-trifluoromethyl-pyridin-2-ylamine (referred to herein as “COMPOUND A”) is a potent and specific pan-Class I PI3K inhibitor with activity against breast cancer cells bearing HER2-amplification as well as oncogenic PI3K catalytic subunit alpha (PIK3CA) mutations. We compared the efficacy of COMPOUND A on identical human HER2-positive breast cancer cells growing in the MFP or in the brain parenchyma of nude mice. The three breast cancer cell lines examined included HER2-amplified BT474, HER2-amplified and PIK3CA mutant (E545K) MDA-MB-361, and PIK3CA mutant (H1047R) T-47D cell lines. […] Furthermore, the concentration of COMPOUND A in breast tumors growing at both sites, as well as in the plasma of these mice was identical.

[1] = system: HER2- or PI3K-driven breast tumors growing in the MFP (BT474, MDA-MB-361, T-47D); test: Mammary fat pad (MFP) xenograft tumor growth; format: in vivo, nude mice; settings: COMPOUND A 30 or 50 mg/kg once a day p.o.; FIG. 1A
From the text: as §1
(§2) BT474, MDA-MB-361, and T-47D cells were transduced with an expression cassette encoding Gluc and GFP separated by an internal ribosomal entry site, using a lentiviral vector. GFP-positive cells were sorted with a FACSAria cell sorter (BD Biosciences). […]
(§3) Tumor size was measured twice a week by measuring the activity of secreted Gluc in the blood. […] Blood was transferred to an opaque 96-well plate, and Gluc activity was measured using coelenterazine (CTZ; Nanolight) as a substrate and a plate luminometer (Centro XS LB960; Berthold Technologies). […]

BT474-Gluc-BR cells = test: In vitro sensitivity of cancer cells isolated from a brain metastatic tumor; format: cell-based, human; settings: BT474-Gluc-BR cultured for a week in vitro
From the text: We began our investigation into the resistance of breast cancer BM to PI3K inhibition by asking if breast cancer cells require constant influence from the brain microenvironment. We isolated breast cancer cells after dissociation of a brain metastatic tumor (termed BT474-Gluc-BR). After cultured for a week in vitro, the vast majority of viable cells were cancer cells, as identified by GFP. […] Instead, breast cancer cells must receive continuous support from the brain microenvironment in order to maintain resistance. […]
The xCELLigence system (Acea Biosciences Inc.) was used to assess the cell index of T-47D, BT474 and MDA-MB-361 cells. xCELLigence measures electrical impedance across micro-electrodes integrated at the bottom of tissue culture E-plates to provide quantitative information about the biological status of cells, including cell number, morphology and viability. […] Cells were monitored every 15 m for a period of up to 24 h via the incorporated sensor electrode arrays of the E-Plate 96. […] Electric impedance was measured in 1 h intervals after addition of drug until the end of the experiment. Cell index value, which is a dimensionless parameter derived as a relative change in measured electrical impedance to represent numbers of attached cells, was calculated from the electric impedance and plotted using the RTCA software provided by the vendor. […]

[2] = Compound A concentration measurement in tumor and plasma (LC-MS/MS); format: in vivo, nude mice; settings: tumor lysate by LC-MS/MS; comparison between sites
Description: Tumor samples were collected, weighed and lysed in Lysing Matrix D tube (MP Biomedicals) in RIPA buffer (Cell Signaling Technologies (CST)) at fixed weight/volume ratio. The samples were centrifuged at 13,000 rpm and 4° C. in Micro centrifuge for 10 min. Supernatant was collected from the lysate and stored at −80° C. The COMPOUND A concentration in tumor lysate was analyzed by LC-MS/MS at Inventiv Health Clinical Lab, Inc. It was then normalized by tumor weight-lysis buffer ratio to yield COMPOUND A exposure (ng/mL) in tumor tissue.

[3] = system: human breast cancer cells growing in the brain parenchyma (BT474, MDA-MB-361, T-47D); test: Brain metastatic xenograft tumor growth (three cell lines, Example 1); format: in vivo, nude mice; settings: COMPOUND A 30 or 50 mg/kg once a day p.o.; FIG. 1B
From the text: as §1, §2, §3

[4] = system: three HER2-positive breast cancer cell lines; test: Resistance analysis of secreted growth factors (CellTiter-Glo rescue); format: cell-based, human; settings: unbiased analysis of 220 growth factors; 96 h incubation
From the text: A collection of cDNA constructs representing secreted and single pass transmembrane proteins was identified (as described previously described^56) and purchased from Invitrogen Ultimate ORF collection. (The library is maintained by DMP BioArchive.) pCDNA-DEST40 (Invitrogen) was the plasmid vector for all clones, and all clone inserts were confirmed by full sequencing. For this study a collection of 338 cDNA constructs, representing 220 unique secreted and single pass transmembrane proteins, was used to identify rescued ligands in the present of each compound treatment—each cDNA construct was reverse-transfected using HEK293T/17. […] CellTiter-Glo assay was then used for conducting end-point read out. Following plate to plate normalization of the raw CTG reading for triplicates, the rescue % value for each secreted protein was calculated using the following formula: Rescue %=[Median (drug+supe)−Median (drug)]/[Median (DMSO)−Median (drug)]. The statistical probability score of the Rescue % value was also calculated: p-value=Chidist [Z(drug+supe)^2, 1], where Z(drug+supe)=[Median (drug+supe)−Median (drug)]/Std(drug+supe), where drug+supe stands for the individual sample that were treated with individual supernatant that was expected to contain one unique secreted protein. […]

Molecule | level of p-AKT inhibition in BM compared with MFP tumors (p-AKT) | tumor response to treatment, tumors growing in the MFP [1] | in vitro sensitivity of brain microenvironment-exposed cells versus parental cells (BT474-Gluc-BR cells) | concentration in breast tumors growing at both sites (MFP, brain) and in plasma [2] | tumor response to treatment, established brain metastatic lesions [3] | induction of resistance to COMPOUND A [4]
Nc1cc(C(F)(F)F)c(-c2cc(N3CCOCC3)nc(N3CCOCC3)n2)cn1 [COMPOUND A, 5-(2,6-di-morpholin-4-yl-pyrimidin-4-yl)-4-trifluoromethyl-pyridin-2-ylamine] | comparable level of p-AKT inhibition | regression | similarly sensitive | identical | resistant to treatment | –
B1 | – | – | – | – | – | most potent inducers of resistance
